In patent US20230265068A1, “TRANSIENT RECEPTOR POTENTIAL CANONICAL 3 INHIBITORS AND METHODS OF USE THEREOF” (University of Tennessee Research Foundation, priority 2020, published 2023):

How the values were obtained:
hTRPA1 = molecular target: T1, hTRPA1 (Homo sapiens, UniProt O75762); test: whole-cell patch clamp selectivity, HEK 293 cells overexpressing hTRPA1; format: cell-based; details: HEK293, with agonist, solutions without Ca2+, read-out: % of the current of hTRPA1 inhibited
T1 construct: expressed in transfected cells; host or cells: HEK293, transient transfection, pMO vector
Experimental: Human embryonic kidney 293 (HEK293; catalog number CRL-1573) cells were cultured in Dulbecco's modified Eagle's medium (Invitrogen) supplemented with 10% fetal bovine serum and 1% penicillin-streptomycin at 37° C. and 5% CO2. Constructs cloned in pMO (a pcDNA3-modified vector) were co-transfected with GFP-pMO, using Lipofectamine 2000 (Invitrogen) according to the manufacturer's instructions. Macroscopic currents in the whole-cell patch clamp configuration were recorded 18-24 h post-transfection. The extracellular solution contained 140 mM NaCl, 6 mM KCl, 2 mM MgCl2, 10 mM HEPES, and 10 mM glucose (pH 7.4). Pipettes were made of borosilicate glass (outer diameter, 1.5 mm; inner diameter, 1.10 mm; Sutter Instruments) and fire-polished with a resistance between 2.8 and 4.0 megaohms when filled with an intracellular solution that contained 140 mM CsCl, 5 mM EGTA, and 10 mM HEPES, pH 7.2. Currents were recorded with a Multiclamp 700B amplifier (Molecular Devices) using a 1-s ramp from −100 to 100 mV. […] Data were acquired with a sampling rate of 20 kHz, low-pass filtered (10 kHz), and analyzed offline using Clampfit v10.4.2.0 (Molecular Devices). […]

[1] = metabolic stability in rat liver microsomes; format: in vitro ADME; details: rat, microsomes
Experimental: The metabolic stability of compound 22 was tested prior to the next phase of in vivo study. […] The maximum tolerated dose (MTD) study was subsequently performed to investigate its in vivo toxicity (FIGS. 4A and 4B). The second major limitation of Pyr3 is its toxicity due to its alkylating tail moiety. While replacing only the fast-metabolizing head ester group in Pyr3 with a stable amide (compound 79) improved metabolic stability, a single IP injection of compound 79 at 200 mg/kg killed all mice within 24 h.

hippocampal neurons = test: neuroprotection against Aβ-containing conditioned medium (7PA2) in primary hippocampal neurons; format: cell-based, rat; details: 14 DIV neurons, 7PA2 medium, 16 hours, different concentrations
Experimental: To visualize dendritic spines, 14 DIV hippocampal neurons at low density (5,000 cells per 35 mm dish) were exposed to 7PA2 conditioned media (CM), which contains naturally secreted Aβ, or CHO control media or for 16 h, with or without cotreatment with the two inhibitor compounds, followed by immunocytochemistry with MAP2 and DAPI counterstaining.
To explore the potential biological effects of compound 22 in a TRPC3 related disease model, its neuroprotective ability in primary cultured neurons (14 DIV prepared from E17 rats as described) was evaluated. The effects on neuron dendritic morphology were measured by imaging. Mature hippocampal neurons (DIV=14) were treated with CHO control medium, or naturally secreted Aβ-containing conditioned medium (7PA2), or in combination with compound 22 or Pyr3 at different concentrations, for 16 hours, followed by immunocytochemistry using an antibody against MAP2 and DAPI (data not shown). […] Hippocampal neurons (DIV=14) were treated with compound 22 or Pyr3 alone at different concentrations, followed by immunocytochemistry staining with MAP2 and DAPI (data not shown).

[2] = test system: pilocarpine-induced seizures; test: mouse pilocarpine model of SE; format: in vivo, mice
Experimental: (FIG. 7A) Mice were treated by pilocarpine (220 mg/kg, i.p.) for seizure induction, and behavioral seizures were scored every 5 min based a modified Racine scale. After stage-2 behavioral seizures were established (usually about 15-20 min after pilocarpine injection), mice were treated by either vehicle or compound 22 (100 mg/kg, i.p.). […] (FIG. 7B) Maximal seizure scores in mice after pilocarpine injection (p<0.0001, t-test). (FIG. 7C) Latency to partial (stage-3) seizures (p=0.0002, t-test). (FIG. 7D) Latency to generalized (stage-4) seizures (p=0.0001, t-test). (FIG. 7E) Percentage of animals that experienced stage-5 seizures or SE (p<0.0001, Fisher's exact test). (FIG. 7F) Percentage of animals survived pilocarpine-induced seizures (p=0.1649, Fisher's exact test). Data are presented as mean+/±SEM.
Mouse Pilocarpine Model of SE. Mice were first injected with methylscopolamine and terbutaline (2 mg/kg each in saline, i.p.) to minimize the unwanted effects of pilocarpine in the periphery. Thirty minutes later, pilocarpine (250 mg/kg in saline, freshly prepared, i.p.) was injected to induce seizures in mice. To determine the anti-seizure effects of compound 22, compound 22 was administered either before pilocarpine injection or after the behavioral seizures were well established. Control mice received methylscopolamine and terbutaline, followed by saline injection instead of pilocarpine. Behavioral seizures were classified using a modified Racine scale as we previously described (Table 5).^22-25 SE was defined by non-intermittent seizure activity (stage 5), which was indicated by continuous generalized clonic seizures without returning to lower-stage seizures (Table 5).

[3] = single dose 100 mg/kg, i.p after onset of seizures (stage 2)

T1 sequence (O75762 whole entry): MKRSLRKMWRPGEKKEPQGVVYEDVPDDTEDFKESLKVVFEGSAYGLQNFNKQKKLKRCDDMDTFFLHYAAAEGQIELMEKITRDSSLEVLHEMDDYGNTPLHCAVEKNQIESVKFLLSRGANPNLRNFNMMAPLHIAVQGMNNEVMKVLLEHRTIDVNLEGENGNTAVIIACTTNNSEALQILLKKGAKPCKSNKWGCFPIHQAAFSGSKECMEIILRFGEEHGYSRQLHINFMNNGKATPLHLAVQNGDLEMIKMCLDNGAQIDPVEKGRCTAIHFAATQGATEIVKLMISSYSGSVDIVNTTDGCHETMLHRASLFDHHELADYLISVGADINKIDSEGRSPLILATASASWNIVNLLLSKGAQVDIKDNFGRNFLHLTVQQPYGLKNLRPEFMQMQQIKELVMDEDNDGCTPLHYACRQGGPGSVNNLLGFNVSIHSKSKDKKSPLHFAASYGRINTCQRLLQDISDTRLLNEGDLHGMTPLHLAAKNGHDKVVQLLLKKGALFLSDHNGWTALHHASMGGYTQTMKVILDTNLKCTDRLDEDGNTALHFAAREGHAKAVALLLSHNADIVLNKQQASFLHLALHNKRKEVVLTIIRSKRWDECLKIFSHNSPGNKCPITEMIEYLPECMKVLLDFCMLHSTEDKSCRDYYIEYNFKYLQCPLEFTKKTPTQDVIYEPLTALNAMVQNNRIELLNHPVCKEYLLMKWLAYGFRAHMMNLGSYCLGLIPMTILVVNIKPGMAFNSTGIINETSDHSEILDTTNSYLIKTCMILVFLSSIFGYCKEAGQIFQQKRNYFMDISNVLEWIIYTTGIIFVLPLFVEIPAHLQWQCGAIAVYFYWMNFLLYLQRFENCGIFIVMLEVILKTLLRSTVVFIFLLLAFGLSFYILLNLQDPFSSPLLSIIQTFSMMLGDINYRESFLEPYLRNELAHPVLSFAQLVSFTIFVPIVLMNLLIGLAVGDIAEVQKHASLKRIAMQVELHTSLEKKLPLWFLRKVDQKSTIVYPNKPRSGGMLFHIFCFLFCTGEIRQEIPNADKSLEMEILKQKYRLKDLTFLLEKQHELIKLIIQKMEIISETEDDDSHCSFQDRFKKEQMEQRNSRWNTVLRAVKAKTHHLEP

With `CCNC(=O)c1cnn(-c2ccc(-n3ccc(Cl)c(Cl)c3=O)cc2)c1C(F)(F)F` [Compound 22] the inhibition at 10 µM (hTRPA1) was less than 5%, the half-life [1] was greater than 4 h and the “protection against Aβ-induced damage to dendrites (MAP2/DAPI)” value (hippocampal neurons) was “protect against Aβ-induced damage to dendrites”. The “scores of pilocarpine-induced seizures (modified Racine scale)” value ([2]; 100 mg/kg, i.p. after stage-2 seizures established, vs vehicle) was “reduced the scores of pilocarpine-induced seizures”, the “electrographic seizures (electroencephalography)” value ([2]; after pilocarpine injection) was “diminished electrographic seizures” and the “maximal seizure scores during a 90-minute observation” value [2, 3] was “decreased”. For the same compound, the overall seizure intensity [2, 3] was “decreased the overall seizure intensity” and the “initiation of behavioral seizures” value ([2]; systemic treatment before pilocarpine injection) was “significantly impaired the initiation of behavioral seizures”.
